Experimental data published in patent publication US20220265668A1, “TREATMENT AND/OR PREVENTION OF LESIONS IN THE CENTRAL AUDITORY NERVOUS SYSTEM” (SENSORION, priority 2019, published 2022).

Key:
[1] = system: young adult NMRI mice having undergone an acoustic trauma; test: Frequency specific ABR thresholds after noise trauma; assay type: in vivo; conditions: 26.4 mg/kg peroral once daily for 14 days after noise trauma (4-20 kHz, 115 dB SPL, 3 h); compared to placebo; FIG. 1
Method: 12 animals per group (young adult Naval Medical Research Institute (NMRI) mice), 96 animals in total.
Frequency specific ABR-thresholds at 4; 8; 12; 16; 20; 24; 28; 32 kHz under anesthesia (Ketamine/Xylazine). At least 3 measurements per frequency were performed.
(§1) Noise application was performed for 3 h under anesthesia, using a broad band noise 4-20 kHz, 115 dB SPL, free-field.
(§2) Post-traumatic (0; 24 h; 48 h or 72 h after noise exposure) initiation of oral administration of 26.4 mg/kg (R)-azasetron besylate or of the related placebo formulation, respectively, was performed once daily. Treatments were continued daily for 14 days. • Treatment (T) group 1 +Placebo (P) group 1: Treatment from d1-d14 • Treatment (T) group 2 +Placebo (P) group 2: Treatment from d2-d15 • Treatment (T) group 3 +Placebo (P) group 3: Treatment from d3-d16 • Treatment (T) group 4 +Placebo (P) group 4: Treatment from d4-d17

[2] = system: neuronal cells in the ventral cochlear nucleus (VCN); test: Neuronal cell density in the ventral cochlear nucleus (VCN) after noise trauma; assay type: in vivo, mice
Method: as §1, §2
(§3) Six animals per group (48 in total) have been perfused via the left hearth chamber with a fixative solution (paraformaldehyde (4%)) on day 15.
(§4) Cochleae and brains were prepared (cutting, staining), as disclosed in Gröschel et al. (2010).

[3] = system: outer hair cells (OHC) in the cochlea; test: Cochlear hair cell loss (cochleogram) after noise trauma; assay type: in vivo, mice; conditions: 26.4 mg/kg peroral once daily for 14 days after noise trauma; at growing distances from the apex; vs placebo; FIG. 2
Method: as §1, §2, §3, §4

[4] = system: neuronal cells in the inferior colliculus (IC); test: Neuronal cell density in the inferior colliculus (IC) after noise trauma; assay type: in vivo, mice; conditions: 26.4 mg/kg peroral once daily for 14 days, initiated 0 h, 24 h, 48 h or 72 h after acoustic trauma; compared to placebo; FIG. 5
Method: as §1, §2, §3, §4

Structure (SMILES) | threshold shift of the auditory brainstem response [1] | destruction of neuronal cells in the VCN (normalized cell densities per grid) ([2]; 26.4 mg/kg peroral once daily for 14 days, initiated immediately or 24/48/72 h after acoustic trauma, vs placebo, FIGS. 3 and 4) | loss of outer hair cells (OHC) in the cochlea [3] | destruction of neuronal cells in the IC (normalized cell densities per grid) [4] | loss of neurons in the brainstem ([2]; administration upon the onset of lesions after acoustic trauma, summary in discussion (VCN and IC))
CN1C(=O)COc2c(C(=O)N[C@H]3CN4CCC3CC4)cc(Cl)cc21 [(R)-azasetron besylate] | does not significantly affect | reduces the destruction of neuronal cells | affects the loss of outer hair cells | reduces the destruction of neuronal cells | –
CN1C(=O)COc2c(C(=O)NC3CN4CCC3CC4)cc(Cl)cc21 (centres unmarked) [azasetron, N-(1-azabicyclo[2.2.2]octan-8-yl)-6-chloro-4-methyl-3-oxo-1,4-benzoxazine-8-carboxamide, reference compound] | – | – | – | – | significantly reduce the loss of neurons
